Laboratory results taken from ChEMBL document CHEMBL3217615, “Novel 3,5-bis(arylidiene)-4-piperidone based monocarbonyl analogs of curcumin: anticancer activity evaluation and mode of action study” (2014).

Experiments:
Format in all cases: functional
CAKI-1 = experiment: Growth inhibition of human CAKI-1 cells assessed as cell growth at 10^-8 M after 48 hrs by sulforhodamine B assay; conditions: CAKI-1, 48 h; for growth at 0.01 µM: read-out: Activity; for CC50: read-out: pLC50 (the source's name) (converted); for TGI: read-out: pTGI (converted)
SW-620 = experiment: Growth inhibition of human SW620 cells assessed as cell growth at 10^-8 M after 48 hrs by sulforhodamine B assay; conditions: SW-620, 48 h; for growth at 0.01 µM: read-out: Activity; for TGI: read-out: pTGI (converted)
[1] = Growth inhibition of human UACC62 cells assessed as cell growth at 10^-8 M after 48 hrs by sulforhodamine B assay; conditions: UACC-62, 48 h; for growth at 0.01 µM: read-out: Activity; for TGI: read-out: pTGI (converted)
786-0 = experiment: Growth inhibition of human 786-0 cells assessed as cell growth at 10^-7 M after 48 hrs by sulforhodamine B assay; conditions: 786-0, 48 h, read-out: Activity
HL-60(TB) = experiment: Growth inhibition of human HL-60(TB) cells assessed as cell growth at 10^-8 M after 48 hrs by sulforhodamine B assay; conditions: HL-60, 48 h; for growth at 0.01 µM: read-out: Activity; for CC50: read-out: pLC50 (the source's name) (converted); for TGI: read-out: pTGI (converted)
[2] = Growth inhibition of human OVCAR3 cells after 48 hrs by sulforhodamine B assay; conditions: OVCAR-3, 48 h; for CC50: read-out: LC50 (the source's name)
M14 = experiment: Growth inhibition of human M14 cells assessed as cell growth at 10^-8 M after 48 hrs by sulforhodamine B assay; conditions: M14, 48 h; for growth at 0.01 µM: read-out: Activity; for CC50: read-out: pLC50 (the source's name) (converted); for TGI: read-out: pTGI (converted)
[3] = Growth inhibition of human NCI-ADR-RES cells assessed as cell growth at 10^-7 M after 48 hrs by sulforhodamine B assay; conditions: read-out: Activity
NCI-H460 [4] = experiment: Growth inhibition of human NCI-H460 cells assessed as cell growth at 10^-8 M after 48 hrs by sulforhodamine B assay; conditions: NCI-H460, 48 h; for growth at 0.01 µM: read-out: Activity; for TGI: read-out: pTGI (converted)
NCI-H460 [5] = experiment: Growth inhibition of human NCI-H460 cells assessed as cell growth at 10^-7 M after 48 hrs by sulforhodamine B assay; conditions: NCI-H460, 48 h, read-out: Activity
NCI-H226 = experiment: Growth inhibition of human NCI-H226 cells assessed as cell growth at 10^-8 M after 48 hrs by sulforhodamine B assay; conditions: NCI-H226, 48 h; for growth at 0.01 µM: read-out: Activity; for TGI: read-out: pTGI (converted)
RPMI-8226 = experiment: Growth inhibition of human RPMI8226 cells assessed as cell growth at 10^-6 M after 48 hrs by sulforhodamine B assay; conditions: RPMI-8226, 48 h, read-out: Activity
NCI-H23 = experiment: Growth inhibition of human NCI-H23 cells assessed as cell growth at 10^-7 M after 48 hrs by sulforhodamine B assay; conditions: NCI-H23, 48 h, read-out: Activity
IGROV-1 = experiment: Growth inhibition of human IGROV1 cells assessed as cell growth at 10^-4 M after 48 hrs by sulforhodamine B assay; conditions: IGROV-1, 48 h, read-out: Activity
HOP-62 = experiment: Growth inhibition of human HOP62 cells assessed as cell growth at 10^-7 M after 48 hrs by sulforhodamine B assay; conditions: HOP-62, 48 h, read-out: Activity
[6] = Growth inhibition of human HCT15 cells assessed as cell growth at 10^-4 M after 48 hrs by sulforhodamine B assay; conditions: HCT-15, 48 h, read-out: Activity
SK-MEL-5 = experiment: Growth inhibition of human SK-MEL-5 cells assessed as cell growth at 10^-7 M after 48 hrs by sulforhodamine B assay; conditions: SK-MEL-5, 48 h, read-out: Activity
HCT-116 = experiment: Growth inhibition of human HCT116 cells assessed as cell growth at 10^-6 M after 48 hrs by sulforhodamine B assay; conditions: HCT-116, 48 h, read-out: Activity
SK-MEL-2 = experiment: Growth inhibition of human SK-MEL-2 cells assessed as cell growth at 10^-4 M after 48 hrs by sulforhodamine B assay; conditions: SK-MEL-2, 48 h, read-out: Activity
[7] = Growth inhibition of human OVCAR4 cells assessed as cell growth at 10^-6 M after 48 hrs by sulforhodamine B assay; conditions: OVCAR-4, 48 h, read-out: Activity
MCF7 = experiment: Growth inhibition of human MCF7 cells assessed as cell growth at 10^-7 M after 48 hrs by sulforhodamine B assay; conditions: MCF7, 48 h, read-out: Activity
K562 = experiment: Growth inhibition of human K562 cells assessed as cell growth at 10^-7 M after 48 hrs by sulforhodamine B assay; conditions: K562, 48 h, read-out: Activity
A498 = experiment: Growth inhibition of human A498 cells assessed as cell growth at 10^-7 M after 48 hrs by sulforhodamine B assay; conditions: A498, 48 h, read-out: Activity
U-251 = experiment: Growth inhibition of human U251 cells assessed as cell growth at 10^-8 M after 48 hrs by sulforhodamine B assay; conditions: U-251, 48 h; for growth at 0.01 µM: read-out: Activity; for TGI: read-out: pTGI (converted)
SR = experiment: Growth inhibition of human SR cells assessed as cell growth at 10^-7 M after 48 hrs by sulforhodamine B assay; conditions: read-out: Activity
[8] = Growth inhibition of human RXF393 cells after 48 hrs by sulforhodamine B assay; conditions: RXF 393, 48 h; for CC50: read-out: LC50 (the source's name)
NCI-H522 = experiment: Growth inhibition of human NCI-H522 cells after 48 hrs by sulforhodamine B assay; conditions: NCI-H522, 48 h; for CC50: read-out: LC50 (the source's name)
COLO 205 = experiment: Growth inhibition of human COLO205 cells assessed as cell growth at 10^-6 M after 48 hrs by sulforhodamine B assay; conditions: COLO 205, 48 h, read-out: Activity
SK-OV-3 [9] = experiment: Growth inhibition of human SKOV3 cells assessed as cell growth at 10^-8 M after 48 hrs by sulforhodamine B assay; conditions: SK-OV-3, 48 h; for growth at 0.01 µM: read-out: Activity; for TGI: read-out: pTGI (converted)
SK-OV-3 [10] = experiment: Growth inhibition of human SKOV3 cells after 48 hrs by sulforhodamine B assay; conditions: SK-OV-3, 48 h; for CC50: read-out: LC50 (the source's name)
PC-3 = experiment: Growth inhibition of human PC3 cells assessed as cell growth at 10^-7 M after 48 hrs by sulforhodamine B assay; conditions: PC-3, 48 h, read-out: Activity

O=C1/C(=C/c2ccc(Cl)cc2Cl)CN(S(=O)(=O)c2ccccc2)C/C1=C\c1ccc(Cl)cc1Cl
GI50 (CAKI-1): 1820 nM
growth at 0.01 µM (CAKI-1): 89%
CC50 (CAKI-1): > 100000 nM
TGI (CAKI-1): 5750 nM
GI50 (SW-620): 316 nM
LC50 (SW-620): > 100000 nM
growth at 0.01 µM (SW-620): 97%
TGI (SW-620): 2820 nM
GI50 [1]: 813 nM
LC50 [1]: 5750 nM
growth at 0.01 µM [1]: 94%
TGI [1]: 2290 nM
growth at 0.1 µM (786-0): 104%
GI50 (HL-60(TB)): 562 nM
growth at 0.01 µM (HL-60(TB)): 97%
CC50 (HL-60(TB)): > 100000 nM
TGI (HL-60(TB)): 3980 nM
GI50 [2]: 310 nM
TGI [2]: 818 nM
CC50 [2]: 5010 nM
GI50 (M14): 3630 nM
growth at 0.01 µM (M14): 102%
CC50 (M14): > 100000 nM
TGI (M14): > 100000 nM
growth at 0.1 µM [3]: 109%
GI50 (NCI-H460 [4]): 209 nM
LC50 (NCI-H460 [4]): 955 nM
growth at 0.01 µM (NCI-H460 [4]): 103%
TGI (NCI-H460 [4]): 447 nM
growth at 0.1 µM (NCI-H460 [5]): 98%
GI50 (NCI-H226): 1050 nM
LC50 (NCI-H226): 7940 nM
growth at 0.01 µM (NCI-H226): 92%
TGI (NCI-H226): 2880 nM
growth at 1 µM (RPMI-8226): -25%
growth at 0.1 µM (NCI-H23): 104%
growth at 100 µM (IGROV-1): -47%
growth at 0.1 µM (HOP-62): 113%
growth at 100 µM [6]: -36%
growth at 0.1 µM (SK-MEL-5): 98%
growth at 1 µM (HCT-116): -56%
growth at 100 µM (SK-MEL-2): 6%
growth at 1 µM [7]: 10%
growth at 0.1 µM (MCF7): 84%
growth at 0.1 µM (K562): 99%
growth at 0.1 µM (A498): 61%
GI50 (U-251): 174 nM
LC50 (U-251): 813 nM
growth at 0.01 µM (U-251): 96%
TGI (U-251): 372 nM
growth at 0.1 µM (SR): 70%
GI50 [8]: 1060 nM
TGI [8]: 2420 nM
CC50 [8]: 5540 nM
GI50 (NCI-H522): 854 nM
TGI (NCI-H522): 2990 nM
CC50 (NCI-H522): 9730 nM
growth at 1 µM (COLO 205): 16%
GI50 (SK-OV-3 [9]): 7940 nM
LC50 (SK-OV-3 [9]): > 100000 nM
growth at 0.01 µM (SK-OV-3 [9]): 109%
TGI (SK-OV-3 [9]): > 100000 nM
GI50 (SK-OV-3 [10]): 7950 nM
TGI (SK-OV-3 [10]): > 100000 nM
CC50 (SK-OV-3 [10]): > 100000 nM
growth at 0.1 µM (PC-3): 93%

Cc1ccc(S(=O)(=O)N2C/C(=C\c3cc(F)cc(F)c3)C(=O)/C(=C/c3cc(F)cc(F)c3)C2)cc1
GI50 (CAKI-1): 363 nM
growth at 0.01 µM (CAKI-1): 94%
CC50 (CAKI-1): 61700 nM
TGI (CAKI-1): 2450 nM
GI50 (SW-620): 72.4 nM
LC50 (SW-620): 1450 nM
growth at 0.01 µM (SW-620): 99%
TGI (SW-620): 302 nM
GI50 [1]: 214 nM
LC50 [1]: 1620 nM
growth at 0.01 µM [1]: 94%
TGI [1]: 513 nM
growth at 0.1 µM (786-0): 104%
GI50 (HL-60(TB)): 288 nM
growth at 0.01 µM (HL-60(TB)): 116%
CC50 (HL-60(TB)): > 100000 nM
TGI (HL-60(TB)): 1740 nM
GI50 [2]: 441 nM
TGI [2]: 1440 nM
CC50 [2]: 4560 nM
GI50 (M14): 363 nM
growth at 0.01 µM (M14): 103%
CC50 (M14): 5890 nM
TGI (M14): 1410 nM
growth at 0.1 µM [3]: 106%
GI50 (NCI-H460 [4]): 832 nM
LC50 (NCI-H460 [4]): 9120 nM
growth at 0.01 µM (NCI-H460 [4]): 103%
TGI (NCI-H460 [4]): 2880 nM
growth at 0.1 µM (NCI-H460 [5]): 104%
GI50 (NCI-H226): 8710 nM
LC50 (NCI-H226): > 100000 nM
growth at 0.01 µM (NCI-H226): 97%
TGI (NCI-H226): 39800 nM
growth at 1 µM (RPMI-8226): -16%
growth at 0.1 µM (NCI-H23): 100%
growth at 100 µM (IGROV-1): -80%
growth at 0.1 µM (HOP-62): 110%
growth at 100 µM [6]: -65%
growth at 0.1 µM (SK-MEL-5): 89%
growth at 1 µM (HCT-116): -32%
growth at 100 µM (SK-MEL-2): -77%
growth at 1 µM [7]: 26%
growth at 0.1 µM (MCF7): 62%
growth at 0.1 µM (K562): 44%
growth at 0.1 µM (A498): 93%
GI50 (U-251): 186 nM
LC50 (U-251): 2040 nM
growth at 0.01 µM (U-251): 94%
TGI (U-251): 525 nM
growth at 0.1 µM (SR): 14%
GI50 [8]: 723 nM
TGI [8]: 2140 nM
CC50 [8]: 5130 nM
GI50 (NCI-H522): 316 nM
TGI (NCI-H522): 962 nM
CC50 (NCI-H522): 3850 nM
growth at 1 µM (COLO 205): 35%
GI50 (SK-OV-3 [9]): 1820 nM
LC50 (SK-OV-3 [9]): 37200 nM
growth at 0.01 µM (SK-OV-3 [9]): 103%
TGI (SK-OV-3 [9]): 5620 nM
GI50 (SK-OV-3 [10]): 1840 nM
TGI (SK-OV-3 [10]): 5620 nM
CC50 (SK-OV-3 [10]): 37200 nM
growth at 0.1 µM (PC-3): 89%
